Test results taken from patent publication US11026944B2, “Compositions and methods for treating insomnia” (Eisai R&D Management Co., Ltd., priority 2014, dated 2021).
Read-outs that look alike come from different tables or passages of the source.

Columns and labels:
[1] = 001 Study Part B: plasma PK of compound A; assay type: in vivo, human; details: subjects with primary insomnia, single evening dose
Experimental: For subjects in Part B, blood samples for measurements of plasma concentrations of compound A were obtained by direct venipuncture on Day 1 predose and at 0.5, 9, 12, 24, 36, 60, 84, 108, 156, and 228 hours postdose.
Plasma concentrations of compound A were measured using a validated liquid chromatography-mass spectrometry/mass spectrometry (LC-MS/MS) assay.

[2] = Crossover study of relative bioavailability of tablet versus capsule (005 Study): plasma PK; assay type: in vivo, human; details: for Tmax / concentration at 8 h / AUC(0-t) / AUC(0-inf) / Cmax / half-life: human, plasma; for concentration at 8 h: plasma at 8 h, read-out: C8 Mean(SD); for AUC(0-inf): read-out: AUC(0-inf) Mean(SD); for Cmax: read-out: Cmax Mean(SD); for half-life: read-out: t1/2 Mean(SD) (converted)
Experimental: Single-center, open-label, randomized crossover study was conducted to evaluate, in healthy adult subjects, the bioavailability of single solid oral doses of compound A in tablet formulation relative to single oral doses of compound A in capsule formulation at 2.5, 10, and 25 mg. Another objective of the study was to evaluate the safety and tolerability of tablet formulations of compound A at 2.5, 10, and 25 mg in healthy adult subjects. Approximately 36 subjects were randomly assigned to one of three cohorts (approximately 12 subjects per cohort) and received both a single dose of compound A as a capsule formulation and a single dose of compound A as a tablet formulation, in random sequence, in a 1:1 ratio. The doses were 2.5 mg, 10 mg, and 25 mg.
The study had two phases: Prerandomization and Randomization. The Prerandomization Phase lasted for up to 21 days and included a Screening Period and Baseline Period A, during which eligibility was established and baseline assessments before dosing of the first formulation occurred. The Randomization Phase consisted of two Treatment Periods (A and B), separated by Baseline Period B. On the first day of Treatment Period A, subjects received a single oral dose of the first formulation. After the first formulation dose, pharmacokinetic (PK) and safety assessments were obtained throughout Treatment Period A, and subjects completed a 20-day washout. Before dosing of the second formulation, subjects completed Baseline Period B assessments. Subjects then proceeded to Treatment Period B and received a single oral dose of the second formulation. Pharmacokinetic and safety assessments were obtained throughout Treatment Period B.
Blood samples for the determination of plasma concentrations of compound A were collected at the following times: Treatment Period A (Day 1 to Day 15): before and after dosing at 0.5 (30 minutes), 1, 1.5, 2, 3, 4, 5, 6, 8, 12, 24, 48, 72, 120, 168, 240, and 336 hours; Treatment Period B (Day 22 to Day 36): before and after dosing at 0.5 (30 minutes), 1, 1.5, 2, 3, 4, 5, 6, 8, 12, 24, 48, 72, 120, 168, 240, and 336 hours.
Plasma concentrations of compound A were measured using a validated liquid chromatography-tandem mass spectrometry (LC-MS/MS) assay.
Noncompartmental methods were used to calculate the following plasma PK parameters for compound A: area under the plasma concentration-time curve from time zero to 8 hours after dosing (AUC(0-8)), area under the plasma concentration-time curve from time zero to 72 hours after dosing (AUC(0-72)), area under the plasma concentration-time curve from time zero to time of the last quantifiable concentration (AUC(0-t)), area under the plasma concentration-time curve from time zero extrapolated to time infinity (AUC(0-inf)), maximum observed plasma drug concentration (Cmax), terminal elimination half-life (t1/2), absorption lag time (tlag), and time to reach the maximum (peak) plasma concentration after drug administration (tmax). The primary PK parameters were AUC(0-inf) and Cmax. The individual PK parameters of compound A were presented in the data listings by formulation (tablet or capsule) and dose (2.5, 10, or 25 mg). The PK parameters except tmax and tlag were summarized by formulation and dose using descriptive statistics: number of subjects, mean, SD, coefficient of variation, geometric mean, median, minimum, and maximum. The parameters tmax and tlag were summarized by formulation and dose using the following descriptive statistics: median, minimum, maximum, and the 90% confidence interval (CI) of the median point estimate. The natural log (In)-transformed PK parameters for compound A (AUC(0-inf), Cmax, AUC(0-8), AUC(0-72), and AUC(0-t)) were compared separately by dose with a mixed-effects model with sequence, treatment period, and formulation as fixed effects and subjects nested within sequence as a random effect. […]

[3] = across all dose levels (2.5, 10, 25 mg)
[4] = po, 2.5 mg, single oral 2.5 mg Capsule, healthy adults
[5] = po, 2.5 mg, single oral 2.5 mg Tablet, healthy adults
[6] = po, 10 mg, single oral 10 mg Capsule, healthy adults
[7] = po, 10 mg, single oral 10 mg Tablet, healthy adults
[8] = po, 25 mg, single oral 25 mg Capsule, healthy adults
[9] = po, 25 mg, single oral 25 mg Tablet, healthy adults

With `Cc1ncc(OC[C@@]2(c3cccc(F)c3)C[C@H]2C(=O)Nc2ccc(F)cn2)c(C)n1` [Compound A, (1R,2 S)-2-(((2,4-dimethylpyrimidin-5-yl)oxy)methyl)-2-(3-fluorophenyl)-N-(5-fluoropyridin-2-yl) cyclopropanecarboxamide] the “concentration-time profiles in Part B compared with Part A” value [1] was “approximately similar to their corresponding dose groups in Part A”, the “Differences between formulations (tablet vs capsule) in AUC(0-8), AUC(0-72), AUC(0-t), AUC(0-inf)” value [2, 3] was “less than 13%” and the “Differences between tablet and capsule formulations in Cmax” value [2, 3] was “less than 16%”. For the same molecule, the absorption lag ([2]; either formulation, any dose level) was “no observed absorption lag”, the Tmax ([2]; oral, tablet and capsule, across all dose levels, read-out: median tmax) was 1 to 1.5 h and the concentration at 8 h ([2]; po, 2.5 mg, single oral 2.5 mg Capsule) was 0.00184 µg/mL. For the same molecule, the concentration at 8 h ([2]; po, 2.5 mg, single oral 2.5 mg Tablet) was 0.00175 µg/mL, the AUC(0-t) ([2]; po, 2.5 mg, single oral 2.5 mg Capsule, healthy adults, read-out: AUC(0-8) Mean(SD)) was 0.0455 µg·h/mL and the AUC(0-t) ([2]; po, 2.5 mg, single oral 2.5 mg Capsule, healthy adults, read-out: AUC(0-72) Mean(SD)) was 0.0851 µg·h/mL. For the same molecule, the AUC(0-inf) [2, 4] was 0.103 µg·h/mL, the AUC(0-t) ([2]; po, 2.5 mg, single oral 2.5 mg Capsule, healthy adults, read-out: AUC(0-t) Mean(SD)) was 0.0949 µg·h/mL and the Cmax [2, 4] was 0.0159 µg/mL. For the same molecule, the half-life [2, 4] was 36.8 h, the Tmax ([2]; po, 2.5 mg, single oral 2.5 mg Capsule, healthy adults, read-out: tmax (median)) was 1 h and the AUC(0-t) ([2]; po, 2.5 mg, single oral 2.5 mg Tablet, healthy adults, read-out: AUC(0-8) Mean(SD)) was 0.0471 µg·h/mL. The AUC(0-t) ([2]; po, 2.5 mg, single oral 2.5 mg Tablet, healthy adults, read-out: AUC(0-72) Mean(SD)) was 0.0843 µg·h/mL, the AUC(0-inf) [2, 5] was 0.101 µg·h/mL and the AUC(0-t) ([2]; po, 2.5 mg, single oral 2.5 mg Tablet, healthy adults, read-out: AUC(0-t) Mean(SD)) was 0.0932 µg·h/mL. For the same molecule, the Cmax [2, 5] was 0.018 µg/mL, the half-life [2, 5] was 35.1 h and the Tmax ([2]; po, 2.5 mg, single oral 2.5 mg Tablet, healthy adults, read-out: tmax (median)) was 1 h. For the same molecule, the concentration at 8 h ([2]; po, 10 mg, single oral 10 mg Capsule) was 0.0089 µg/mL, the concentration at 8 h ([2]; po, 10 mg, single oral 10 mg Tablet) was 0.00744 µg/mL and the AUC(0-t) ([2]; po, 10 mg, single oral 10 mg Capsule, healthy adults, read-out: AUC(0-8) Mean(SD)) was 0.164 µg·h/mL. It also gave an AUC(0-t) ([2]; po, 10 mg, single oral 10 mg Capsule, healthy adults, read-out: AUC(0-72) Mean(SD)) of 0.372 µg·h/mL, an AUC(0-inf) [2, 6] of 0.531 µg·h/mL and an AUC(0-t) ([2]; po, 10 mg, single oral 10 mg Capsule, healthy adults, read-out: AUC(0-t) Mean(SD)) of 0.511 µg·h/mL. The Cmax [2, 6] was 0.049 µg/mL, the half-life [2, 6] was 57 h and the Tmax ([2]; po, 10 mg, single oral 10 mg Capsule, healthy adults, read-out: tmax (median)) was 1.5 h. For the same molecule, the AUC(0-t) ([2]; po, 10 mg, single oral 10 mg Tablet, healthy adults, read-out: AUC(0-8) Mean(SD)) was 0.178 µg·h/mL, the AUC(0-t) ([2]; po, 10 mg, single oral 10 mg Tablet, healthy adults, read-out: AUC(0-72) Mean(SD)) was 0.341 µg·h/mL and the AUC(0-inf) [2, 7] was 0.472 µg·h/mL. The AUC(0-t) ([2]; po, 10 mg, single oral 10 mg Tablet, healthy adults, read-out: AUC(0-t) Mean(SD)) was 0.455 µg·h/mL, the Cmax [2, 7] was 0.0581 µg/mL and the half-life [2, 7] was 59.5 h. The Tmax ([2]; po, 10 mg, single oral 10 mg Tablet, healthy adults, read-out: tmax (median)) was 1 h, the concentration at 8 h ([2]; po, 25 mg, single oral 25 mg Capsule) was 0.0199 µg/mL and the concentration at 8 h ([2]; po, 25 mg, single oral 25 mg Tablet) was 0.0176 µg/mL. For the same molecule, the AUC(0-t) ([2]; po, 25 mg, single oral 25 mg Capsule, healthy adults, read-out: AUC(0-8) Mean(SD)) was 0.358 µg·h/mL, the AUC(0-t) ([2]; po, 25 mg, single oral 25 mg Capsule, healthy adults, read-out: AUC(0-72) Mean(SD)) was 0.803 µg·h/mL and the AUC(0-inf) [2, 8] was 1.11 µg·h/mL. The AUC(0-t) ([2]; po, 25 mg, single oral 25 mg Capsule, healthy adults, read-out: AUC(0-t) Mean(SD)) was 1.08 µg·h/mL, the Cmax [2, 8] was 0.105 µg/mL and the half-life [2, 8] was 57.4 h. For the same molecule, the Tmax ([2]; po, 25 mg, single oral 25 mg Capsule, healthy adults, read-out: tmax (median)) was 1.5 h, the AUC(0-t) ([2]; po, 25 mg, single oral 25 mg Tablet, healthy adults, read-out: AUC(0-8) Mean(SD)) was 0.386 µg·h/mL and the AUC(0-t) ([2]; po, 25 mg, single oral 25 mg Tablet, healthy adults, read-out: AUC(0-72) Mean(SD)) was 0.795 µg·h/mL. The AUC(0-inf) [2, 9] was 1.1 µg·h/mL, the AUC(0-t) ([2]; po, 25 mg, single oral 25 mg Tablet, healthy adults, read-out: AUC(0-t) Mean(SD)) was 1.07 µg·h/mL and the Cmax [2, 9] was 0.12 µg/mL. For the same molecule, the half-life [2, 9] was 57.6 h and the Tmax ([2]; po, 25 mg, single oral 25 mg Tablet, healthy adults, read-out: tmax (median)) was 1 h.
